Assay [1] concerns milkweed bug. Put plainly: topical application to milkweed bug, fourth nymphal stage, maturation inhibition. The format is in vivo. The note with it: rating scale 0-3. An excerpt: (§1) The compounds were applied in acetone solution at concentrations of 10 percent, 1 percent and 0.5 percent. One microliter of the acetone solution was applied to each test specimen. Ten test specimens were employed for each insect at each concentration and compared to ten acetone controls and ten zero controls. Approximately eight to ten days were required before results could be ascertained.
(§2) The insect species used in the test were Tenebrio molitor pupae; milkweed bug, fourth nymphal stage; wax moth, fifth larval stage; and Mexican bean beetle, fourth larval stage. At the completion of the test, each specimen was examined for the degree of juvenile and adult characteristics. The milkweed bug, wax moth, and Mexican bean beetle were assigned a numerical rating of 0 to 3 with 0 indicating no effect and 3 indicating the maximum effect or least adult development. Because of differences in morphology the Tenebrio rating scale was 0 to 4. In all cases a rating of 2 or higher means that the insect is incapable of reproduction. The number of specimens in each rating classification are given. In any test were the total of specimens reported is less than 10, those unreported died in some metamorphic stage. Such deaths indicate control, since the dead insects are not capable of reproducing.

Assay [2] deals with housefly larvae. Briefly: topical application to housefly larvae. The format is in vivo, Musca domestica. The following applies: scale 0-2. The protocol: as §1
A number of compounds were tested against housefly larvae by topical application in an acetone solution using the method described above for the primary test against Tenebrio, milkweed bug, wax moth, and Mexican bean bettel. The results with the first compound are reported on a scale of 0 to 3 with 0 indicating a normal adult, 1 indicating an adult with deformed wings, 2 indicating a partially emerged adult, and 3 indicating no evidence of emergence. The results for the other compounds are reported onn a scale of 0 to 2 with 0 indicating a normal adult, 1 indicating a partially emerged adult and 2 indicating no evidence of emergence.

Assay [3] relates to Tenebrio molitor pupae. Briefly: topical application to Tenebrio molitor pupae, maturation inhibition. The format is in vivo.
Excerpt: as §1, §2

In assay [4] the test system is wax moth. Briefly: topical application to wax moth, fifth larval stage, maturation inhibition. It is filed as in vivo.
Excerpt: as §1, §2

In assay [5] the test system is Mexican bean beetle. Briefly: topical application to Mexican bean beetle, fourth larval stage, maturation inhibition. It is filed as in vivo.
Excerpt: as §1, §2

The mark [6] stands for this setting: 10% in acetone, 1 microliter topical, rating scale 0 (no effect) to 3 (maximum).
Where [7] appears, read: 10% in acetone, 1 microliter topical, rating scale 0 (no effect) to 4 (maximum).

On to `CC(=CCCc1ccc2c(c1)OCO2)CCC1OC1(C)C` (stereo not drawn) [9-(3,4-methylenedioxyphenyl)-2,6-dimethyl-2,3-epoxy-6-nonene], for which the “number of specimens in rating 1” value in assay [1] (0.5%) worked out at 2 specimens; in assay [1] (1%), 5 specimens. The “number of specimens in rating 2” value in assay [1] (0.5%) is given as 4 specimens. Besides, the “number of specimens in rating 3” value is 2 specimens in assay [1] (1%) and 7 specimens in assay [1] (10%). The “number in rating 2 (no evidence of emergence)” value in assay [2] (1%) and in assay [2] (10%) was 10 each time. For the same compound, the “number of specimens in rating 4” value in assay [3] (0.5%, rating scale 0-4) is on record as 10 specimens; in assay [3] (1%, rating scale 0-4) it was 9 specimens; in assay [3] (10%, rating scale 0-4), 10 specimens. For the same compound, the “number of specimens in rating 0” value in assay [3] (1%, rating scale 0-4) was determined as 1 specimens.
As for `CC(C)=CCC/C(C)=C\CCc1ccc(Cl)cc1` [cis-9-(4-chlorophenyl)-2,6-dimethyl-2,6-nonadiene], in assay [2] (0.5%), the “number in rating 0 (normal adult)” value worked out at 3, the “number in rating 1 (partially emerged adult)” value was found to be 3 and the “number in rating 2 (no evidence of emergence)” value was determined as 3. In assay [2] (1%), the “number in rating 0 (normal adult)” value was 2, the “number in rating 1 (partially emerged adult)” value is 2 and the “number in rating 2 (no evidence of emergence)” value was 4. Further, in assay [2] (10%), the “number in rating 1 (partially emerged adult)” value was 2 and the “number in rating 2 (no evidence of emergence)” value is 6.
Consider `CC(C)=CCC/C(C)=C/CCc1cccc(C)c1` [trans-2,6-dimethyl-9-(3-tolyl)-2,6-nonadiene], for which the “number of specimens in rating 0” value is 10 specimens in assay [4] (0.5%, rating scale 0-3); 10 specimens in assay [4] (1%, rating scale 0-3); 10 specimens in assay [4] (setting [6]); 9 specimens in assay [5] (0.5%, rating scale 0-3); 1 specimens in assay [5] (1%, rating scale 0-3); 10 specimens in assay [1] (0.5%). Besides, the “number of specimens in rating 0” value in assay [1] (1%) came out at 5 specimens; in assay [3] (0.5%, rating scale 0-4), 10 specimens; in assay [3] (1%, rating scale 0-4) it was 9 specimens. Besides, the “number of specimens in rating 2” value in assay [5] (0.5%, rating scale 0-3) amounted to 1 specimens; in assay [5] (1%, rating scale 0-3) it was 1 specimens; in assay [1] (1%) it was 2 specimens; in assay [3] (1%, rating scale 0-4), 1 specimens. Also, in assay [5] (1%, rating scale 0-3), the “number of specimens in rating 1” value is reported as 1 specimens. The “number of specimens in rating 3” value in assay [5] (1%, rating scale 0-3) turned out to be 7 specimens; in assay [5] (10%, rating scale 0-3), 10 specimens; in assay [1] (1%), 1 specimens; in assay [1] (10%), 10 specimens. The “number of specimens in rating 4” value in assay [3] (10%, rating scale 0-4) was 10 specimens.
With `CC(C)=CCC/C(C)=C/CCc1ccc(N(C)C)cc1` [trans-4-(4,8-DIMETHYL-3,7-NONADIENYL)-N,N-DIMETYLANILINE], the “number of specimens in rating 0” value came out at 10 specimens in assay [4] (0.5%, rating scale 0-3); 10 specimens in assay [4] (1%, rating scale 0-3); 10 specimens in assay [4] (setting [6]); 10 specimens in assay [5] (0.5%, rating scale 0-3); 9 specimens in assay [5] (1%, rating scale 0-3); 10 specimens in assay [1] (0.5%). Further, the “number of specimens in rating 0” value is 5 specimens in assay [1] (1%); 10 specimens in assay [3] (0.5%, rating scale 0-4); 2 specimens in assay [3] (1%, rating scale 0-4). Further, the “number of specimens in rating 3” value turned out to be 1 specimens in assay [5] (1%, rating scale 0-3); 10 specimens in assay [5] (10%, rating scale 0-3); 2 specimens in assay [1] (1%); 10 specimens in assay [1] (10%); 4 specimens in assay [3] (1%, rating scale 0-4). The “number of specimens in rating 1” value is 1 specimens in assay [1] (1%) and 2 specimens in assay [3] (1%, rating scale 0-4). Also, the “number of specimens in rating 2” value in assay [1] (1%) was 1 specimens; in assay [3] (1%, rating scale 0-4), 1 specimens. For the same compound, the “number of specimens in rating 4” value in assay [3] (10%, rating scale 0-4) was found to be 10 specimens.
On to `CC(C)=CCC/C(C)=C/CCc1ccc(C#N)cc1` [trans-4-(4,8-DIMETHYL-3,7-NONADIENYL)BENZONITRILE], for which the “number of specimens in rating 0” value in assay [4] (0.5%, rating scale 0-3) is 10 specimens; in assay [4] (1%, rating scale 0-3), 10 specimens; in assay [4] (setting [6]), 10 specimens; in assay [5] (0.5%, rating scale 0-3), 10 specimens; in assay [5] (1%, rating scale 0-3), 10 specimens; in assay [5] (setting [6]), 10 specimens. The “number of specimens in rating 0” value turned out to be 3 specimens in assay [1] (0.5%); 10 specimens in assay [3] (0.5%, rating scale 0-4); 10 specimens in assay [3] (1%, rating scale 0-4); 9 specimens in assay [3] (setting [7]). The “number of specimens in rating 1” value in assay [1] (0.5%) is on record as 5 specimens. Further, the “number of specimens in rating 2” value in assay [1] (0.5%) was 1 specimens; in assay [1] (1%) it was 3 specimens. Also, the “number of specimens in rating 3” value in assay [1] (0.5%) came out at 1 specimens; in assay [1] (1%), 7 specimens; in assay [1] (10%), 10 specimens. The “number of specimens in rating 4” value in assay [3] (10%, rating scale 0-4) stood at 1 specimens.
With `CC(C)=CCC/C(C)=C/CCc1c(Cl)cccc1Cl` [trans-9-(2,6-DICHLOROPHENYL)-2,6-DIMETHYL-2,6-NONADIENE], the “number of specimens in rating 0” value in assay [4] (0.5%, rating scale 0-3) came to 10 specimens; in assay [4] (1%, rating scale 0-3), 10 specimens; in assay [4] (setting [6]), 10 specimens; in assay [5] (0.5%, rating scale 0-3), 10 specimens; in assay [5] (1%, rating scale 0-3), 9 specimens; in assay [5] (setting [6]), 8 specimens. Moreover, the “number of specimens in rating 0” value came to 10 specimens in assay [1] (0.5%); 8 specimens in assay [1] (1%); 10 specimens in assay [3] (0.5%, rating scale 0-4); 10 specimens in assay [3] (1%, rating scale 0-4); 9 specimens in assay [3] (setting [7]). Also, the “number of specimens in rating 1” value in assay [5] (1%, rating scale 0-3) was found to be 1 specimens; in assay [5] (10%, rating scale 0-3) it was 2 specimens. Further, in assay [1] (10%), the “number of specimens in rating 3” value was found to be 10 specimens.
With `CC(C)=CCC/C(C)=C/CCc1ccc(F)cc1` [trans-9-(4-FLUOROPHENYL)-2,6-DIMETHYL-2,6-NONADIENE], the “number of specimens in rating 0” value in assay [4] (0.5%, rating scale 0-3) was 10 specimens; in assay [4] (1%, rating scale 0-3), 9 specimens; in assay [4] (setting [6]), 10 specimens; in assay [3] (0.5%, rating scale 0-4) it was 10 specimens; in assay [3] (1%, rating scale 0-4) it was 10 specimens. Moreover, the “number of specimens in rating 3” value in assay [5] (0.5%, rating scale 0-3) came to 10 specimens; in assay [5] (1%, rating scale 0-3) it was 10 specimens; in assay [5] (10%, rating scale 0-3), 10 specimens; in assay [1] (0.5%), 7 specimens; in assay [1] (1%) it was 8 specimens; in assay [1] (10%), 10 specimens. Also, the “number of specimens in rating 2” value in assay [1] (0.5%) was 3 specimens; in assay [1] (1%), 2 specimens. Besides, the “number of specimens in rating 4” value in assay [3] (10%, rating scale 0-4) is reported as 10 specimens.

For the origin of these results see patent US3962282A, “Juvenile hormone mimics” (priority 1974, dated 1976).
